In brackets after ≈: the same amount, converted by molar mass.
How the values were obtained:
NCI-H460 = assay: Cytotoxicity against human NCI-H460 cells; type: functional
MCF7 = assay: Cytotoxicity against human MCF7 cells; type: functional
BXPC-3 = assay: Cytotoxicity against human […] cells; type: functional
SF-268 = assay: Cytotoxicity against human SF-268 cells; type: functional
DU-145 = assay: Cytotoxicity against human DU145 cells; type: functional
KM-20L2 = assay: Cytotoxicity against human KM20L2 cells; type: functional
[1] = Aqueous solubility at 25 degC; type: physicochemical; settings: water
P388 = assay: Cytotoxicity against mouse P388 cells; type: functional; settings: read-out: ED50 (the source's name)

SMILES | GI50 (NCI-H460) | GI50 (MCF7) | GI50 (BXPC-3) | GI50 (SF-268) | GI50 (DU-145) | GI50 (KM-20L2) | solubility [1] | EC50 (P388)
O=C1N[C@H]2[C@H](O)[C@H](O)[C@@H](O)C[C@@H]2c2cc3c(cc21)OCO3 | 0.043 µg/mL (≈ 0.147 µM) | 0.034 µg/mL (≈ 0.116 µM) | 0.046 µg/mL (≈ 0.157 µM) | 0.059 µg/mL (≈ 0.201 µM) | 0.04 µg/mL (≈ 0.136 µM) | 0.051 µg/mL (≈ 0.174 µM) | < 1000 µg/mL | 0.029 µg/mL (≈ 0.0989 µM)
O=C1N[C@H]2[C@H](O)[C@H](O)[C@@H](O)C[C@@H]2c2cc3c(c(O)c21)OCO3 | 0.0092 µg/mL (≈ 0.0297 µM) | 0.0053 µg/mL (≈ 0.0171 µM) | 0.012 µg/mL (≈ 0.0388 µM) | 0.02 µg/mL (≈ 0.0647 µM) | 0.0066 µg/mL (≈ 0.0213 µM) | 0.015 µg/mL (≈ 0.0485 µM) | < 1000 µg/mL | 0.0024 µg/mL (≈ 0.00776 µM)
O=C1N[C@@H]2C(=C[C@H](O)[C@@H](O)[C@H]2O)c2cc3c(cc21)OCO3 | 0.053 µg/mL (≈ 0.182 µM) | 0.046 µg/mL (≈ 0.158 µM) | 0.07 µg/mL (≈ 0.24 µM) | 0.12 µg/mL (≈ 0.412 µM) | 0.051 µg/mL (≈ 0.175 µM) | 0.084 µg/mL (≈ 0.288 µM) | < 1000 µg/mL | 0.019 µg/mL (≈ 0.0652 µM)
O=C1N[C@H]2[C@@H]3OP(=O)([O-])O[C@@H]3[C@@H](O)C[C@@H]2c2cc3c(c(O)c21)OCO3.[Na+] | 7.8 µg/mL | 4.6 µg/mL | 5.6 µg/mL | 8.8 µg/mL | 5.2 µg/mL | 9.6 µg/mL | > 10000 µg/mL | 0.88 µg/mL
O=C1N[C@H]2[C@@H]3OP(=O)([O-])O[C@@H]3[C@@H](O)C[C@@H]2c2cc3c(cc21)OCO3.[K+] | > 1 µg/mL | > 1 µg/mL | > 1 µg/mL | > 1 µg/mL | > 1 µg/mL | > 1 µg/mL | > 5000 µg/mL | 1.7 µg/mL
O=C1N[C@H]2[C@@H]3OP(=O)([O-])O[C@@H]3[C@@H](O)C[C@@H]2c2cc3c(cc21)OCO3.[Na+] | > 10 µg/mL | 7.2 µg/mL | > 10 µg/mL | > 10 µg/mL | > 10 µg/mL | > 10 µg/mL | > 10000 µg/mL | 1.6 µg/mL
O=C1N[C@H]2[C@@H]3OP(=O)([O-])O[C@@H]3[C@@H](O)C[C@@H]2c2cc3c(cc21)OCO3.[Li+] | > 1 µg/mL | > 1 µg/mL | > 1 µg/mL | > 1 µg/mL | > 1 µg/mL | > 1 µg/mL | > 5000 µg/mL | 0.39 µg/mL
O=C1N[C@@H]2C(=C[C@H](O)[C@H]3OP(=O)([O-])O[C@H]32)c2cc3c(cc21)OCO3.[Na+] | 4.7 µg/mL | 4 µg/mL | 5.3 µg/mL | 6.3 µg/mL | 3.9 µg/mL | 5.6 µg/mL | > 190000 µg/mL | 1.7 µg/mL
O=C1N[C@@H]2C(=C[C@H](O)[C@H]3OP(=O)([O-])O[C@H]32)c2cc3c(cc21)OCO3.[Li+] | > 1 µg/mL | > 1 µg/mL | > 1 µg/mL | > 1 µg/mL | > 1 µg/mL | > 1 µg/mL | > 10000 µg/mL | 0.42 µg/mL
O=C1N[C@H]2[C@@H]3OP(=O)([O-])O[C@@H]3[C@@H](O)C[C@@H]2c2cc3c(c(O)c21)OCO3.[K+] | > 1 µg/mL | 0.64 µg/mL | > 1 µg/mL | > 1 µg/mL | 0.54 µg/mL | > 1 µg/mL | > 1000 µg/mL | 0.35 µg/mL
O=C1N[C@H]2[C@@H]3OP(=O)([O-])O[C@@H]3[C@@H](O)C[C@@H]2c2cc3c(c(O)c21)OCO3.[Li+] | > 1 µg/mL | > 1 µg/mL | > 1 µg/mL | > 1 µg/mL | > 1 µg/mL | > 1 µg/mL | > 1000 µg/mL | 0.26 µg/mL
O=C1N[C@@H]2C(=C[C@H](O)[C@H]3OP(=O)([O-])O[C@H]32)c2cc3c(cc21)OCO3.[K+] | > 1 µg/mL | > 1 µg/mL | > 1 µg/mL | > 1 µg/mL | > 1 µg/mL | > 1 µg/mL | > 10000 µg/mL | 1.4 µg/mL
